This note sets out measurements from patent publication US8119681B2, “2-[1-phenyl-5-hydroxy or methoxy-4alpha-methyl-hexahydrocyclopenta [ƒ]indazole-5-YL]ethyl phenyl derivatives as glucocorticoid receptor ligands” (Merck Sharp & Dohme Corp., priority 2006, dated 2012).

A word on the Ki: it is the equilibrium dissociation constant of an inhibitor or competing ligand from its target. A higher Ki goes with lower affinity.

For the test, the target named is T1, glucocorticoid receptor (GR) (Homo sapiens, UniProt P04150).
T1 construct: endogenous in cells; host or cells: HeLa (ATCC) cell lysate supernatant
T1 sequence (P04150 1-777): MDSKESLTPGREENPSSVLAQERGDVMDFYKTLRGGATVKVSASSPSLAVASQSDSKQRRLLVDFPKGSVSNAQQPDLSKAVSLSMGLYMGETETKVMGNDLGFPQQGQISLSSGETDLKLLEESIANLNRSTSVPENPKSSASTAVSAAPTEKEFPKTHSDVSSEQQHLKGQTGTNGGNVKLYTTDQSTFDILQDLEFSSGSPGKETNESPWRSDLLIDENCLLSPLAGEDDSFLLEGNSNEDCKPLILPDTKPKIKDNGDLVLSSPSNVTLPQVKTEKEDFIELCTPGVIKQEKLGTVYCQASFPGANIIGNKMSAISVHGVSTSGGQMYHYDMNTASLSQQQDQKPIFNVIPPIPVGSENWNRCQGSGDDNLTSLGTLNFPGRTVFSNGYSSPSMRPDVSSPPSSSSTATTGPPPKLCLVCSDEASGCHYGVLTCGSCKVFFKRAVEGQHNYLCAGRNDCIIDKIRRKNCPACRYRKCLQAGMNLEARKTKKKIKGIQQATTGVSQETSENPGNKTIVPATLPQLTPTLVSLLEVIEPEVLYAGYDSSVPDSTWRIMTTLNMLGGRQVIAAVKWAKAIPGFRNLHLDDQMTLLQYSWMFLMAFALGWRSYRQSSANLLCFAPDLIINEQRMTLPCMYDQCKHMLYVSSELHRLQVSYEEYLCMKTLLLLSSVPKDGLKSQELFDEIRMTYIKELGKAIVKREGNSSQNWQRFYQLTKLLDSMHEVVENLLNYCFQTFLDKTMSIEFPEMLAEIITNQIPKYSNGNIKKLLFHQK
The test is described as follows: Ligand binding assay (GR BIND), 3H-dexamethasone displacement, HeLa cell lysate. As to the method: Binding Buffer: TEGM (10 mM Tris-HCl, 1 mM EDTA, 10% glycerol, 1 mM beta-mercaptoethanol, 10 mM Sodium Molybdate, pH 7.2)
50% HAP Slurry: Calbiochem Hydroxylapatite, Fast Flow, in 10 mM Tris, pH 8.0 and 1 mM EDTA.
Wash Buffer: 40 mM Tris, pH7.5, 100 mM KCl, 1 mM EDTA and 1 mM EGTA.
Dexmethasone-methyl-^3H, (DEX*); (Amersham cat# TRK645)
Dexamethasone (DEX) (Sigma, cat# D1756):
Phenol red-free Trypsin-EDTA is diluted in the same PBS 1:10. The cell layers are rinsed with 1× Trypsin, extra Trypsin is poured out, and the cell layers are incubated at 37° C. for ˜2 min. The flask is tapped and checked for signs of cell detachment. Once the cells begin to slide off the flask, the complete media is added. The cells are counted at this point, then diluted to the appropriate concentration and split into flasks or dishes for further culturing (Usually 1:3 to 1:6 dilution).
Preparation of Hela Cell Lysate
The cell pellet is washed twice with TEGM (10 mM Tris-HCl, 1 mM EDTA, 10% glycerol, 1 mM beta-mercaptoethanol, 10 mM Sodium Molybdate, pH 7.2). After the final wash, the cells are resuspended in TEGM at a concentration of 10^7 cells/mL. The cell suspension is snap frozen in liquid nitrogen or ethanol/dry ice bath and transferred to −80° C. freezer on dry ice. Before setting up the binding assay, the frozen samples are left on ice-water to just thaw (˜1 hr). Then the samples are centrifuged at 12,500 g to 20,000 g for 30 min at 4° C. The supernatant is used to set-up assay right away. If using 50 μL of supernatant, the test compound can be prepared in 50 μL of the TEGM buffer.
Procedure for Multiple Compound Screening
1×TEGM buffer is prepared, and the isotope-containing assay mixture is prepared in the following order: EtOH (2% final concentration in reaction), 3H-DEX (Amersham Biosciences) and 1×TEGM. [e.g. For 100 samples, 200 μL (100×2) of EtOH+4.25 μL of 1:10 ^3H-Dex stock+2300 μL (100×23) 1×TEGM]. The compound is serially diluted, e.g., if starting final conc. is 1 μM, and the compound is in 25 μL of solution, for duplicate samples, 75 μL of 4×1 μM solution is made and 3 μL of 100 μM is added to 72 μL of buffer, and 1:5 serial dilution.
25 μL of ^3H-DEX (6 nM) trace and 25 μL compound solution are first mixed together, followed by addition of 50 μL receptor solution. The reaction is gently mixed, spun briefly at about 200 rpm and incubated at 4° C. overnight. 100 μL of 50% HAP slurry is prepared and added to the incubated reaction which is then vortexed and incubated on ice for 5 to 10 minutes. The reaction mixture is vortexed twice more to resuspend HAP while incubating reaction. The samples in 96-well format are then washed in wash buffer using The FilterMate™ Universal Harvester plate washer (Packard). The washing process transfers HAP pellet containing ligand-bound expressed receptor to Unifilter-96 GF/B filter plate (Packard). The HAP pellet on the filter plate is incubated with 50 μL of MICROSCINT (Packard) scintillant for 30 minutes before being counted on the TopCount microscintillation counter (Packard). IC50s are calculated using DEX as a reference.

The mark [1] stands for this setting: Table 1, HeLa cell lysate, 3H-DEX.
The mark [2] stands for this setting: Table 2, prior-art comparison compounds.

Under setting [1], `CC(O)(C(N)=O)c1ccccc1CC[C@]1(O)CCC2=Cc3c(cnn3-c3ccc(F)cc3)C[C@@]21C` (single isomer, unassigned) [Example 150] displayed an inhibitory constant (Ki) of 11 nM.
`CC(C(N)=O)c1ccccc1CC[C@]1(O)CCC2=Cc3c(cnn3-c3ccc(F)cc3)C[C@@]21C` (single isomer, unassigned) [Example 196]: affinity under setting [1] was put at a Ki of 1.8 nM.
`C[C@]12Cc3cnn(-c4ccc(F)cc4)c3C=C1CC[C@@]2(O)CCc1ccccc1C(F)C(N)=O` (single isomer, unassigned) [Example 198] showed an inhibitory constant (Ki) under setting [1] of 2.44 nM.
Turning to `C[C@]12Cc3cnn(-c4ccc(F)cc4)c3C=C1CC[C@@]2(O)CCc1ccccc1` [Example 2 WO 2004/075840 A2, reference compound], under setting [2], the affinity, expressed as Ki, was 5.24 nM.
As to `CCNC(=O)c1ccccc1CC[C@]1(O)CCC2=Cc3c(cnn3-c3ccc(F)cc3)C[C@@]21C` [Example 2, N-ethyl-2-{2-[(4αS,5R)-1-(4-fluorophenyl)-5-hydroxy-4α-methyl-1,4,4α,5,6,7-hexahydrocyclopenta[f]indazol-5-yl]ethyl}benzamide], affinity under setting [1] was put at a Ki of 2.08 nM.
Same read-out and setting: the same measure for `C[C@]12Cc3cnn(-c4ccc(F)cc4)c3C=C1CC[C@@]2(O)CCc1ccccc1CNS(=O)(=O)C1CC1` [Example 5, N-(2-{2-[(4αS,5R)-1-(4-fluorophenyl)-5-hydroxy-4α-methyl-1,4,4α,5,6,7-hexahydrocyclopenta[f]indazol-5-yl]ethyl}benzyl)cyclopropanesulfonamide]: 0.44 nM; for `C[C@]12Cc3cnn(-c4ccc(F)cc4)c3C=C1CC[C@@]2(O)CCc1ccccc1N1CCC1=O` [Example 11, 1-(2-{2-[(4αS,5R)-1-(4-fluorophenyl)-5-hydroxy-4α-methyl-1,4,4α,5,6,7-hexahydrocyclopenta[f]indazol-5-yl]ethyl}phenyl)azetidin-2-one]: 2.37 nM; for `CC(=O)Nc1ccccc1CC[C@]1(O)CCC2=Cc3c(cnn3-c3ccc(F)cc3)C[C@@]21C` [Example 14, N-(2-{2-[(4αS,5R)-1-(4-fluorophenyl)-5-hydroxy-4α-methyl-1,4,4α,5,6,7-hexahydrocyclopenta[f]indazol-5-yl]ethyl}phenyl)acetamide]: 6.38 nM.
`C[C@]12Cc3cnn(-c4ccc(F)cc4)c3C=C1CC[C@@]2(O)CCc1ccccc1NS(=O)(=O)C1CC1` [Example 15, N-(2-{2-[(4αS,5R)-1-(4-fluorophenyl)-5-hydroxy-4α-methyl-1,4,4α,5,6,7-hexahydrocyclopenta[f]indazol-5-yl]ethyl}phenyl)cyclopropanesulfonamide] gave an inhibition constant (Ki) under setting [1] of 1.17 nM. Compared with the last compound, the Ki is about 5.5-fold lower.
On the same count and under the same terms, the same measure for `C[C@]12Cc3cnn(-c4ccc(F)cc4)c3C=C1CC[C@@]2(O)CCc1ccccc1S(C)(=O)=O` [Example 19, (4αS,5R)-1-(4-fluorophenyl)-4α-methyl-5-{2-[2-(methylsulfonyl)phenyl]ethyl}-1,4,4α,5,6,7-hexahydrocyclopenta[f]indazol-5-ol]: 1.13 nM.
In turn, `C[C@]12Cc3cnn(-c4ccc(F)cc4)c3C=C1CCC[C@@H]2[C@@H](O)Cc1ccccc1` [Example 22 WO 03/086294 A2, reference compound] had a Ki under setting [2] of 1.27 nM.
With `CNC(=O)Cc1ccccc1CC[C@]1(O)CCC2=Cc3c(cnn3-c3ccc(F)cc3)C[C@@]21C` [Example 23, 2-(2-{2-[(4αS,5R)-1-(4-fluorophenyl)-5-hydroxy-4α-methyl-1,4,4α,5,6,7-hexahydrocyclopenta[f]indazol-5-yl]ethyl}phenyl)-N-methylacetamide], the Ki under setting [1] came to 5.09 nM.
Under setting [1], `COC(=O)C1(NC(=O)c2ccccc2CC[C@]2(O)CCC3=Cc4c(cnn4-c4ccc(F)cc4)C[C@@]32C)CC1` [Example 26, methyl 1-[(2-{2-[(4αS,5R)-1-(4-fluorophenyl)-5-hydroxy-4α-methyl-1,4,4α,5,6,7-hexahydrocyclopenta[f]indazol-5-yl]ethyl}benzoyl)amino]cyclopropanecarboxylate] registered an inhibition constant (Ki) of 1.37 nM.
With `CC1(NC(=O)c2ccccc2CC[C@]2(O)CCC3=Cc4c(cnn4-c4ccc(F)cc4)C[C@@]32C)CC1` [Example 28, 2-{2-[(4αS,5R)-1-(4-fluorophenyl)-5-hydroxy-4α-methyl-1,4,4α,5,6,7-hexahydrocyclopenta[f]indazol-5-yl]ethyl}-N-(1-methylcyclopropyl)benzamide], under setting [1], the affinity corresponds to a Ki of 3.55 nM. This Ki is about 2.6-fold higher than that of the compound before.
For `CC(C)CNC(=O)c1ccccc1CC[C@]1(O)CCC2=Cc3c(cnn3-c3ccc(F)cc3)C[C@@]21C` [Example 29, 2-{2-[(4αS,5R)-1-(4-fluorophenyl)-5-hydroxy-4α-methyl-1,4,4α,5,6,7-hexahydrocyclopenta[f]indazol-5-yl]ethyl}-N-isobutylbenzamide], the Ki under setting [1] turned out to be 1.14 nM. Against the preceding compound, the Ki is about 3.1-fold lower.
On the same count and under the same terms, the same measure for `CCCNC(=O)c1ccccc1CC[C@]1(O)CCC2=Cc3c(cnn3-c3ccc(F)cc3)C[C@@]21C` [Example 30, 2-{2-[(4αS,5R)-1-(4-fluorophenyl)-5-hydroxy-4α-methyl-1,4,4α,5,6,7-hexahydrocyclopenta[f]indazol-5-yl]ethyl}-N-propylbenzamide]: 1.52 nM.
On the same count and under the same terms, next, `CC(CNC(=O)c1ccccc1CC[C@]1(O)CCC2=Cc3c(cnn3-c3ccc(F)cc3)C[C@@]21C)C(F)(F)F` (stereo partly drawn) [Example 31, 2-{2-[(4αS,5R)-1-(4-fluorophenyl)-5-hydroxy-4α-methyl-1,4,4α,5,6,7-hexahydrocyclopenta[f]indazol-5-yl]ethyl}-N-(3,3,3-trifluoro-2-methylpropyl)benzamide]: 0.9 nM; `C=C(C)CNC(=O)c1ccccc1CC[C@]1(O)CCC2=Cc3c(cnn3-c3ccc(F)cc3)C[C@@]21C` [Example 32, 2-{2-[(4αS,5R)-1-(4-fluorophenyl)-5-hydroxy-4α-methyl-1,4,4α,5,6,7-hexahydrocyclopenta[f]indazol-5-yl]ethyl}-N-(2-methylprop-2-en-1-yl)benzamide]: 0.49 nM.
In the case of `C=CCNC(=O)c1ccccc1CC[C@]1(O)CCC2=Cc3c(cnn3-c3ccc(F)cc3)C[C@@]21C` [Example 33, N-allyl-2-{2-[(4αS,5R)-1-(4-fluorophenyl)-5-hydroxy-4α-methyl-1,4,4α,5,6,7-hexahydrocyclopenta[f]indazol-5-yl]ethyl}benzamide], under setting [1], the Ki amounted to 1.13 nM.
On to `CC1(NC(=O)c2ccccc2CC[C@]2(O)CCC3=Cc4c(cnn4-c4ccccc4)C[C@@]32C)CC1` [Example 34, 2-{2-[(4αS,5R)-5-hydroxy-4α-methyl-1-phenyl-1,4,4α,5,6,7-hexahydrocyclopenta[f]indazol-5-yl]ethyl}-N-(1-methylcyclopropyl)benzamide], for which the inhibition constant (Ki) under setting [1] came to 5.29 nM.
